The source of these data is EP0153678A1, “Cinnamic acid derivatives, processes for the preparation thereof and pharmaceutical compositions” (Tanabe Seiyaku Co., Ltd., priority 1984, dated 1985).

Each structure is given as a SMILES string. Where a name gives a salt, the structure may show the parent alone.

Data set [1] relates to pulmonary embolism induced by arachidonic acid. In words: Prophylactic effect against pulmonary embolism induced by arachidonic acid in mice (method of Kohler et al.). It counts as in vivo. To be noted: for Evalu-tion (shortening rate of the recovery time): ddY male mice, test compound 30 mg/kg orally in 0.25 % CMC, after one hour arachidonic acid 70 mg/kg intravenously; for prophylactic effect against arachidonic acid-induced pulmonary embolism, relative to 3-[4-(3-pyridylmethyl)phenyl]-2-methylacrylic acid hydrochloride: Kohler et al.'s method, times as strong as the known compound. On the procedure:
After one hour, arachidonic acid (70 mg/10 ml saline solution/kg) was intravenously administered. […] The time from having had difficulty in breathing and laying till starting to move was counted as a recovery time. When the test animal was died, the longest recovery time during the test was counted. The shortening rate of the recovery time was calculated by the following formula for showing the effect of the test compounds.

The nature of data set [2]: Toxicity compared with the known compound (method not described). To be noted: fraction of the toxicity of the sodium salt of the known compound.

With `CC(=Cc1ccc(C(=O)c2cccnc2)cc1)C(=O)O` [hydrochloride], in data set [1], the “Evalu-tion (shortening rate of the recovery time)” value (“Evalu-tion” below) is “+ (evaluated as (+) when it was more than 50 %)”. Consider `CC(=Cc1ccc(Cc2cccnc2)cc1)C(=O)O.Cl` [3-[4-(3-pyridylmethyl)phenyl]-2-methylacrylic acid hydrochloride, reference compound], for which, in data set [1], the “Evalu-tion” value is given as “± (evaluated as (±) when it was from 20 % to less than 50 %)”. As for `CCOC(c1ccc(C=C(C)C(=O)[O-])cc1)c1cccnc1.[Na+]` (stereo not drawn) [sodium α-methyl-4-(α-ethoxy-3-pyridylmethyl)cinnamate], in data set [1], the “prophylactic effect against arachidonic acid-induced pulmonary embolism, relative to 3-[4-(3-pyridylmethyl)phenyl]-2-methylacrylic acid hydrochloride” value is listed as “more than 2 times” and the “Evalu-tion” value was “+ (evaluated as (+) when it was more than 50 %)”. The “toxicity relative to sodium 3-[4-(3-pyridylmethyl)phenyl]-2-methyl--acrylate” value in data set [2] is listed as “about half”. For the compound `COC(c1ccc(C=C(C)C(=O)O)cc1)c1cccnc1` (stereo not drawn) [sodium α-methyl-4-(α-methoxy-3-pyridylmethyl)cinnamate], the “Evalu-tion” value in data set [1] was “+ (evaluated as (+) when it was more than 50 %)”. In the case of `CC(=Cc1ccc(C(O)c2cccnc2)cc1)C(=O)O` (stereo not drawn) [α-methyl-4-(α-hydroxy-3-pyridylmethyl)cinnamic acid], the “prophylactic effect against arachidonic acid-induced pulmonary embolism, relative to 3-[4-(3-pyridylmethyl)phenyl]-2-methylacrylic acid hydrochloride” value in data set [1] is “more than 2 times”.

As for `CC(=Cc1ccc(C(O)c2cccnc2)cc1)C(=O)O` (stereo not drawn) [α-methyl-4-(α-hydroxy-3-pyridylmethyl)cinnamic acid hydrochloride], the “Evalu-tion” value in data set [1] is listed as “+ (evaluated as (+) when it was more than 50 %)”. On the same count and under the same terms, the value for `CCCOC(c1ccc(C=C(C)C(=O)[O-])cc1)c1cccnc1.[Na+]` (stereo not drawn) [sodium α-methyl-4-(α-n-propoxy-3-pyridylmethyl)cinnamate] was “+ (evaluated as (+) when it was more than 50 %)”.
